In publication PMC9504289 (Pharmaceuticals, 2022) one finds IC50 data, which are given here for three compounds.

One may read the IC50 as the midpoint of a concentration-inhibition curve.

The assay has as its system mutant spike proteins including D614G, delta (B.1.617.2), and omicron (B.1.1.529) – hACE2. Format: binding, SARS-CoV-2, human. Conditions: read-out: IC50 in all assays with mutant spike proteins.

For `O=C(Nc1ccc(-c2ccc(C(=O)Nc3cccc4c(S(=O)(=O)O)cccc34)cc2)cc1)c1ccc([N+](=O)[O-])cc1` [DRI-C24041], the 50% inhibitory concentration (IC50) is less than 3 µM.

In the case of `O=C(Nc1ccc(-c2ccc(C(=O)Nc3cccc4cc(S(=O)(=O)O)ccc34)cc2)cc1)c1ccc([N+](=O)[O-])cc1` [DRI-C23041], the half-maximal inhibitory concentration (IC50) was less than 3 µM.

Turning to `O=S(=O)(O)c1ccc(/N=N/c2c(O)ccc3cc(S(=O)(=O)O)ccc23)cc1` [Sunset yellow, sunset yellow FCF], the IC50 is more than 500 µM.
